Results: ChEMBL document CHEMBL1201862, “PubChem BioAssay data set” (2004)
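Method: 48-hour compound exposure of cells in 96-well plates, five concentrations, linear interpolation of endpoints. GI50 = concentration required for 50% inhibition of growth.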 Activity calls are given as the source filed them. Rule as the data show it: active = GI50 up to about 1.1 µM and inactive = higher.

Key:
Experiment in all cases: NCI tumour cell line growth inhibition, 48 h
[1] = system: K562
[2] = system: 786-0
[3] = system: U-251
[4] = system: HCT-15
[5] = system: T47D
[6] = system: HCT-116
[7] = system: HL-60
[8] = system: MDA-MB-231
[9] = system: COLO 205
[10] = system: CAKI-1
[11] = system: OVCAR-4
[12] = system: CCRF-CEM
[13] = system: NCI-H226
[14] = system: UO-31
[15] = system: SF-268
[16] = system: SNB-19
[17] = system: KM12
[18] = system: NCI/ADR-RES
[19] = system: SK-MEL-5
[20] = system: Hs-578T

Row | SMILES | GI50 [1] | GI50 [2] | GI50 [3] | GI50 [4] [µM] | GI50 [5] | GI50 [6] | GI50 [7] | GI50 [8] | GI50 [9] | GI50 [10] | GI50 [11] | GI50 [12] | GI50 [13] | GI50 [14] | GI50 [15] | GI50 [16] | GI50 [17] | GI50 [18] | GI50 [19] | GI50 [20]
1 | Cc1ccc2c(c1)CC1(C2=O)[C@H](c2ccccc2)C2C(=O)c3ccc(C)cc3C2[C@H]1c1ccccc1 (stereo partly specified) | 30.7 µM (inactive) | > 100 µM (inactive) | > 100 µM (inactive) | > 100 | > 100 µM (inactive) | 24.9 µM (inactive) | 43.1 µM (inactive) | > 100 µM (inactive) | > 100 µM (inactive) | > 100 µM (inactive) | > 100 µM (inactive) | > 100 µM (inactive) | > 100 µM (inactive) | > 100 µM (inactive) | > 100 µM (inactive) | > 100 µM (inactive) | > 100 µM (inactive) |  |  | 
2 | O=C(O)CCCOc1cc(-c2ccccc2F)nc2cc3c(cc12)OCO3 |  | 6.38 µM (inactive) | 5.46 µM (inactive) | 27.9 | > 100 µM (inactive) |  |  | 31.3 µM (inactive) | 3.47 µM (inactive) | 9.64 µM (inactive) | 45.9 µM (inactive) | 3.27 µM (inactive) |  |  |  |  | 4.19 µM (inactive) | 4.65 µM (inactive) |  | 
3 | Cc1ccc(S(=O)(=O)N2c3ccccc3[C@H]3CCC=C[C@H]32)cc1 | 3.38 µM (inactive) | 13.2 µM (inactive) | 4.78 µM (inactive) | 4.59 | 4.97 µM (inactive) | 5.86 µM (inactive) | 4.58 µM (inactive) | 49.2 µM (inactive) | 3.94 µM (inactive) | 12.1 µM (inactive) | 17.3 µM (inactive) | 6.9 µM (inactive) | 10.5 µM (inactive) | 5 µM (inactive) | 10.9 µM (inactive) | 25.6 µM (inactive) | 3.83 µM (inactive) |  | 7.4 µM (inactive) | 15.4 µM (inactive)
4 | CC(=O)N1C(NN(C)C)CCN1c1ccccc1 (stereo unspecified) | > 10 µM (inactive) | > 10 µM (inactive) |  | > 10 | > 10 µM (inactive) |  | > 10 µM (inactive) | > 10 µM (inactive) | > 10 µM (inactive) | > 10 µM (inactive) | > 10 µM (inactive) | > 10 µM (inactive) |  |  | > 10 µM (inactive) |  | > 10 µM (inactive) |  | > 10 µM (inactive) | 
5 | CC(=O)Nc1ccc(S(=O)(=O)Nc2nc(-c3ccc(Cl)cc3)cc(N3N=C(c4ccc(Br)cc4)CC3c3ccccc3)n2)cc1 (stereo unspecified) | 7.21 µM (inactive) | 18.8 µM (inactive) | 16.8 µM (inactive) | 15.7 |  | 14.4 µM (inactive) | 14.2 µM (inactive) | 13.9 µM (inactive) | 14.1 µM (inactive) |  | 15 µM (inactive) | 26.1 µM (inactive) | 12.9 µM (inactive) | 15.4 µM (inactive) |  | 16 µM (inactive) | 10.7 µM (inactive) | 17.1 µM (inactive) |  | 11.1 µM (inactive)
6 | COCn1cnc2c(=O)n(-c3ccc(OC)cc3)c(=S)n(-c3ccc(OC)cc3)c21 | > 100 µM (inactive) | > 100 µM (inactive) | > 100 µM (inactive) | > 100 | > 100 µM (inactive) | > 100 µM (inactive) | > 100 µM (inactive) | > 100 µM (inactive) | > 100 µM (inactive) | > 100 µM (inactive) | 89.3 µM (inactive) | > 100 µM (inactive) | > 100 µM (inactive) | > 100 µM (inactive) | > 100 µM (inactive) |  | > 100 µM (inactive) | > 100 µM (inactive) | > 100 µM (inactive) | 
7 | CC(C)Oc1cccc(N2C(NCc3c[nH]c4ccccc34)=Nc3ccncc3S2(=O)=O)c1 | 21.1 µM (inactive) | 30.3 µM (inactive) | 29.4 µM (inactive) | 22.5 | 5.47 µM (inactive) | 27.7 µM (inactive) | 21.5 µM (inactive) |  | 11.2 µM (inactive) | 32.1 µM (inactive) | 34.4 µM (inactive) | 35.2 µM (inactive) | 45.4 µM (inactive) | 47.4 µM (inactive) | 32.2 µM (inactive) | 32.4 µM (inactive) | 33.3 µM (inactive) | 19.7 µM (inactive) | 13.9 µM (inactive) | 16.2 µM (inactive)
8 | COC(=O)/C=C(\C)CC(O)/C=C(\C)CCC=C(C)C (stereo unspecified) | 32.1 µM (inactive) | 80.5 µM (inactive) | 42.7 µM (inactive) | 58.6 |  | 40.5 µM (inactive) | 17.4 µM (inactive) | > 100 µM (inactive) | 41.2 µM (inactive) | 92.7 µM (inactive) | 44 µM (inactive) | 30.8 µM (inactive) | 45 µM (inactive) | 33.5 µM (inactive) |  | > 100 µM (inactive) | 40.4 µM (inactive) | 16.2 µM (inactive) | 19.5 µM (inactive) | 80 µM (inactive)
9 | CCCCn1c(O)nc2c(N)ncnc21 | > 100 µM (inactive) | > 100 µM (inactive) | > 100 µM (inactive) | > 100 |  | > 100 µM (inactive) | > 100 µM (inactive) | > 100 µM (inactive) | > 100 µM (inactive) |  | > 100 µM (inactive) | > 100 µM (inactive) | > 100 µM (inactive) | > 100 µM (inactive) | > 100 µM (inactive) | > 100 µM (inactive) |  | > 100 µM (inactive) | > 100 µM (inactive) | > 100 µM (inactive)
10 | COc1cc(Oc2nc3cc(F)c(F)cc3nc2-c2ccccc2)cc(OC)c1OC |  | 30.5 µM (inactive) | 40.3 µM (inactive) | 51.9 | > 100 µM (inactive) | > 100 µM (inactive) | > 100 µM (inactive) |  | > 100 µM (inactive) | 46 µM (inactive) | 79.3 µM (inactive) | > 100 µM (inactive) | 45.5 µM (inactive) | 73.6 µM (inactive) | 59 µM (inactive) | 34.2 µM (inactive) | 35 µM (inactive) | > 100 µM (inactive) | 28.1 µM (inactive) | 38.7 µM (inactive)
11 | COc1cc(OC)c2c(=O)c3cccc(C)c3n(C)c2c1 | 25.8 µM (inactive) | > 100 µM (inactive) | 84.3 µM (inactive) | > 100 |  | 48.3 µM (inactive) | 30.5 µM (inactive) | > 100 µM (inactive) | 67 µM (inactive) | > 100 µM (inactive) | 64 µM (inactive) | 36.3 µM (inactive) | > 100 µM (inactive) |  | 72.6 µM (inactive) | > 100 µM (inactive) | 80 µM (inactive) | 64.1 µM (inactive) | 22.4 µM (inactive) | 58.7 µM (inactive)
12 | COc1ccc2c(c1)NC1(CCN(CCCC(=O)c3ccc(F)cc3)CC1)N=N2 | 19.4 µM (inactive) | 19.3 µM (inactive) | 19.2 µM (inactive) | 20.8 | 22.2 µM (inactive) | 17.1 µM (inactive) | 15.2 µM (inactive) | 22.5 µM (inactive) | 14.5 µM (inactive) | 29.6 µM (inactive) | 27.4 µM (inactive) | 20 µM (inactive) | 22 µM (inactive) | 18 µM (inactive) | 41.8 µM (inactive) | 35.3 µM (inactive) | 20.1 µM (inactive) | 24.4 µM (inactive) | 12.6 µM (inactive) | 
13 | O=C1CCCCCCCCCCC1CN(Cc1ccccc1)Cc1ccccc1 (stereo unspecified) | 36.3 µM (inactive) | 42.6 µM (inactive) | 18.8 µM (inactive) | 56.5 | 19.1 µM (inactive) | 17.3 µM (inactive) | 23.9 µM (inactive) | 77.6 µM (inactive) | > 100 µM (inactive) |  | > 100 µM (inactive) | 19.9 µM (inactive) | 51.3 µM (inactive) | 48.5 µM (inactive) | 40 µM (inactive) | 34.9 µM (inactive) | 83.9 µM (inactive) |  | 13.1 µM (inactive) | 22.4 µM (inactive)
14 | C=C1C(=O)OC2/C=C(/CO)C3(O)CC(O)C(C)(CC(OC(=O)/C(C)=C/C)C12)O3 (stereo unspecified) | 4.47 µM (inactive) | 10.1 µM (inactive) | 18.5 µM (inactive) | 7.57 | 10.9 µM (inactive) | 6.73 µM (inactive) | 6.21 µM (inactive) | 15.3 µM (inactive) | 4.73 µM (inactive) | 4.33 µM (inactive) | 22.3 µM (inactive) | 2.1 µM (inactive) | 18.5 µM (inactive) | 20.4 µM (inactive) | 11 µM (inactive) | 36.5 µM (inactive) | 20.5 µM (inactive) |  | 11.1 µM (inactive) | 53.5 µM (inactive)
15 | Nc1nc(-c2ccccc2)c(Cl)c(-c2cc(Cl)ccc2O)n1 | > 46.5 µM (inactive) | 24.4 µM (inactive) | 15.2 µM (inactive) | 18.4 | 3.15 µM (inactive) | 13.4 µM (inactive) | > 42.9 µM (inactive) | 48.5 µM (inactive) | > 100 µM (inactive) | 20.5 µM (inactive) | 15.3 µM (inactive) | > 96.2 µM (inactive) | 24.7 µM (inactive) | 16 µM (inactive) | 18.3 µM (inactive) | 19.2 µM (inactive) | 16.7 µM (inactive) |  | 14.2 µM (inactive) | 
16 | N=c1nc(N)nc(N)n1-c1ccc(S(N)(=O)=O)cc1 | > 100 µM (inactive) | > 100 µM (inactive) | > 100 µM (inactive) | > 100 | > 100 µM (inactive) | > 100 µM (inactive) | > 100 µM (inactive) | > 100 µM (inactive) |  | > 100 µM (inactive) | > 100 µM (inactive) | > 100 µM (inactive) | > 100 µM (inactive) | > 100 µM (inactive) | > 100 µM (inactive) | > 100 µM (inactive) | > 100 µM (inactive) | > 100 µM (inactive) | > 100 µM (inactive) | 
